Experimental data as given in a melting point compilation (Tetko et al.).

| SMILES | melting point [°C] |
| --- | --- |
| CS(=O)(=O)c1ccc(CN)cc1 | 272 to 274 |
| Cc1ccc(NC(=O)Nc2ccccc2)cc1N | 201 to 203 |
| O=C(O)COc1ccccc1OCc1ccccc1 | 87 to 89 |
| O=C(O)C1=NN(c2nc3ccccc3[nH]2)C(=O)CC1 | 328 to 330 |
| CCC(=O)N(C)c1ccccc1C(=O)O | 193 to 195 |
| C#CCNC(=O)Nc1ccc(C)cc1 | 174 to 176 |
| O=[N+]([O-])c1sccc1Br | 80 to 82 |
| NC(=NO)c1ccc(Br)s1 | 124 to 126 |
| O=C(CCl)Nc1ccccc1-c1ccccc1 | 103 to 106 |
| Cc1nc(S)c2ccccc2n1 | 211 to 213 |
| CC(C)c1ccc(CCC(=O)O)cc1 | 71 to 73 |
| Cc1nn(C)c(C)c1CC(C)C(=O)O (configuration not stated) | 125 to 127 |
| Brc1ccccc1-c1ncno1 | 35 to 37 |
| N#CCc1nc2ccc(Br)cc2c(=O)[nH]1 | 279 to 281 |
| NNC(=O)C1CCN(c2ncccn2)CC1 | 237 to 239 |
| O=C(O)CCCNC(=O)c1cccnc1 | 211 to 213 |
| Cc1ccc(NC(=O)CC(N)=NO)cc1 | 168 to 170 |
| CCOC(=O)C1=NN(c2ccccc2)C(C#N)C1 (configuration not stated) | 99 to 101 |
| CC(C)C(Br)C(=O)N1CCCCC1 (configuration not stated) | 61 to 63 |
| Nc1cccc(-c2cn(Cc3ccccc3)nn2)c1 | 139 to 141 |
| O=C(O)c1ccc2nnn(O)c2c1 | 229 to 231 |
| CCCN(C(=O)c1ccccc1N)C(C)C | 64 to 66 |
| O=C(O)c1n[nH]c(=O)[nH]c1=O | 224 to 226 |
| COc1ccc(-n2c(S)nc3ccccc32)cc1 | 213 to 215 |

| SMILES | melting point [°C] |
| --- | --- |
| Cc1cc(C)c(C(=O)O)[nH]1 | 109 to 111 |
| CNS(=O)(=O)c1cc(C(=O)O)ccc1F | 209 to 211 |
| O=c1cc(CCl)c2ccc(Br)cc2o1 | 160 to 162 |
| N#Cc1cccc(C(=O)N2CCCCC2)c1 | 61 to 63 |
| CC(C)C(NC(=O)C=Cc1ccc(C(N)=O)cc1)C(=O)O (configuration not stated) | 235 to 237 |
| COc1ccc(N)cc1OCCO | 99 to 101 |
| Cc1c(NC(=O)CSCC(=O)O)c(=O)n(-c2ccccc2)n1C | 180 to 182 |
| CCCc1ccc(C(=O)COc2ccc(C=O)cc2OC)cc1 | 73 to 75 |
| Cc1ccc(C(=O)CCl)cc1 | 53 to 57 |
| N#Cc1ccccc1Oc1ccccc1C(=O)O | 147 to 149 |
| CCCNc1nnc(S)s1 | 105 to 107 |
| CCOC(=O)/C(C#N)=C/Nc1ccc(OC)cc1OC | 153 to 155 |
| O=C(NC(Cc1cccnc1)C(=O)O)c1ccccc1 (configuration not stated) | 176 to 178 |
| NC(=S)Cc1cn2ccccc2n1 | 144 to 146 |
| Cc1nc(O)nc(C)c1Br | 210 to 212 |
| COc1cc(NC(=O)C2CCCC2)c(C(=O)O)cc1OC | 193 to 195 |
| COc1ccc2c(c1)c(C(=O)O)c(C)n2C1CCCC1 | 174 to 176 |
| CC(C)(C)c1ccc(C(=O)C(=O)O)cc1 | 67 to 69 |
| COCCNS(=O)(=O)c1ccc(C)c(C(=O)O)c1 | 137 to 139 |
| Cc1ccc(NC(=O)CCl)cc1Br | 180 to 181 |
| ClCc1ncc(-c2ccccc2Br)o1 | 85 to 87 |
| CC(C)C(=O)N1CCCC1C(=O)O (configuration not stated) | 118 to 120 |
| CCCCCCCCCCCCSc1nc2sc3c(c2c(=O)n1-c1ccccc1)CCCC3 | 84 to 86 |
| Clc1ccc(N2CCNCC2)nc1 | 64 to 66 |

| SMILES | melting point [°C] |
| --- | --- |
| Cc1cccc2c(CCC(=O)O)c[nH]c12 | 149 to 151 |
| CC(C)(C)NS(=O)(=O)c1ccccc1CN | 131 to 133 |
| Clc1ccc(OC2CCCNC2)nc1 (configuration not stated) | 64 to 66 |
| Cc1nnnn1-c1cc(N)ccc1C(=O)O | 203 to 205 |
| O=CN1CCN(C(=NS(=O)(=O)c2ccccc2)C(F)(F)F)CC1 | 114 to 116 |
| O=c1cc(CCl)nc2sccn12 | 180 to 182 |
| O=C(O)c1ccc(-c2ccccc2Cl)o1 | 210 to 212 |
| Cc1nn(Cc2ccc(F)cc2)c(Cl)c1C=O | 49 to 51 |
| CC1=NN(Cc2ccccc2)C(=O)C1 | 175 to 177 |
| CCOC(=O)c1ccc(N2CCNCC2)nc1 | 49 to 51 |
| CCS(=O)(=O)c1ccc(F)c(C(=O)O)c1 | 129 to 131 |
| O=S1(=O)CCCN1c1ccc(Br)cc1 | 108 to 110 |
| O=[N+]([O-])c1cccnc1N1CCC(CO)CC1 | 71 to 73 |
| CC(C)(C)OC(=O)C1CCN(C(=O)OCc2ccccc2)CC1 | 56 to 58 |
| Nc1nonc1-c1ccc(F)cc1 | 125 to 127 |
| COC(=O)CNS(=O)(=O)c1ccc(Cl)nc1 | 124 to 126 |
| Cc1cc(C(=O)CCl)c(C)[nH]1 | 143 to 145 |
| Cc1ccc(NS(=O)(=O)c2cc(N)ccc2Cl)c(C)c1 | 57 to 59 |
| Nc1cccc(S(=O)(=O)Nc2cccc(Cl)c2)c1 | 107 to 109 |
| O=C(O)c1cc(-c2ccccc2)nc2onc(C3CC3)c12 | 199 to 201 |
| COc1cc(OC)c(S(=O)(=O)Cl)cc1S(=O)(=O)Cl | 139 to 141 |
| O=C(O)c1ccc(C2CC2)s1 | 111 to 113 |
| CC(C)(C)OC(=O)Nc1ncon1 | 165 to 167 |
| O=Cc1cc(Br)ccc1OCc1ccccc1 | 61 to 63 |
